These results are taken from a melting point compilation (Tetko et al.; mined from patent text by program, amines drawn as free bases though some values may be those of a salt).

What is called melting point is the temperature, or range, at which the solid turns liquid. `CC(O)/C=C/c1ccc(-c2ccccc2)cc1` (stereo unspecified) had a melting point of 138 to 139 °C.

The molecule `O=[N+]([O-])c1cccc(CO)c1I` showed a melting point of 91 to 91.5 °C.

For the molecule `C=C(c1cc(F)ccc1OCc1ccc(-c2ccccc2)cc1)n1ccnc1`, the melting point lay within 97 to 98 °C.

Turning to `COc1ccc(C2COc3c(ccc(O)c3C)C2O)cc1` (stereo unspecified), the melting point is 162 °C.

Consider `CCC1C(C)=NN=C(c2ccc(O)c(O)c2)c2cc(O)c(O)cc21` (stereo unspecified), for which the melting point was in the range of 250 to 251 °C.

`Cn1c(=O)c2c(-c3nc(C4CC4)no3)ncn2c2cccnc21` gave a melting point of 266 to 269 °C.

`O=C(NCc1ccn(-c2cc3nc(C(=O)O)c(=O)[nH]c3cc2Cl)c1)Nc1cccc2ccccc12` registered a melting point of 196 to 198 °C.

For `NC(=O)c1sc2ncnc(-c3cc(O)c4c(c3)OCC4)c2c1N`, the melting point came out at 285 °C.

As for `CCOC(=O)c1cn2c3c(c(F)c(F)cc3c1=O)OCC2`, the melting point was 265 to 266 °C.

On to `COC(=O)C(CC#Cc1cc2c(O)c(C(=O)NCc3ccc(Cl)cc3)cnc2s1)C(=O)OC`, for which the melting point is 197 to 198 °C.

In the case of `Cn1c(=O)[nH]c(=O)c2c1ncn2Cc1noc(Cc2ccccc2)n1`, the melting point was in the range of 188 to 190 °C.

The molecule `CC(C)OC(=O)Nc1cccc(-c2ccnc3c(C(=O)c4ccoc4)cnn23)c1` had a melting point of 127 to 129 °C.

In turn, `CCc1ccc(/C(Cl)=C/c2ccc(Br)cc2)cc1` returned a melting point of 75 °C.

`CC1CN(c2ccc(N)cc2)C(C)CN1CC(O)(Cn1cncn1)c1ccc(Cl)cc1Cl` (stereo unspecified) had a melting point of 74 to 75 °C.

Regarding `CCCCNC(=O)Nc1ccc(N(CCC)CCC)cc1C(=O)NCC1CCN(C(c2ccccc2)c2ccccc2)CC1`, the melting point came out at 172 °C.

In turn, `CC(=N)Nc1cccc([N+](=O)[O-])c1` registered a melting point of 226 to 228 °C.

Turning to `CCCCn1c(=O)n(CCCCC(C)=O)c(=O)c2c1ncn2CC(C)=O`, the melting point worked out at 87 °C.

`COc1cccc(CC(=O)O)c1OCCCc1cn(-c2cc(C(F)(F)F)ccn2)nc1C(C)C` registered a melting point of 127 to 128 °C.

As for `CCOC(=O)C(C(=O)COC(C)C)C1c2ccccc2C(=O)N1c1ccc2ccc(Cl)nc2n1` (stereo unspecified), the melting point was 205 °C.

For the molecule `O=[N+]([O-])c1ccc(C2CCNCC2)cc1`, the melting point lay within 90 to 92 °C.

In turn, `COc1cc(C(C)C)c(OCC#N)cc1I` yielded a melting point of 67.5 to 68.8 °C.

On to `N#Cc1ccc2c(c1)C(=O)c1cc(N3CCCCC3)ccc1C2=O`, for which the melting point lay in the range of 274 to 275 °C.

On to `O=C(C1CC1)N1CC[C@H](c2ccccc2)[C@H](O)C1` (relative stereo), for which the melting point fell in the range of 128 to 129 °C.

As for `CCOC(=O)Cn1nc2ccc(NCCCN3CCC(OC(c4ccccc4)c4ccccc4)CC3)nn2c1=O`, the melting point lay within 137 to 139 °C.

`Cc1[nH]cc2c(=O)n(-c3ccc(Cl)cc3)nc-2c1-c1cccc(-n2cnnc2)c1` gave a melting point of more than 350 °C.

Take `NC(=O)c1c(Cl)c(-c2ccccc2)n2c1CN(C(=O)Cc1cccs1)CC2`: the melting point fell in the range of 225 to 229 °C.

Turning to `COc1ccc(-c2coc3ccc(-c4nnc(SCc5ccc(OC)c(C(F)(F)F)c5)o4)cc23)cc1`, the melting point was 162 to 163 °C.

Turning to `COC(=O)c1ccc2oc(CCl)c(C)c2c1`, the melting point lay within 114 to 115 °C.

The molecule `O=C(CC1=C(n2nc(-c3c(-c4ccccc4)nn4ccccc34)ccc2=O)CCCC1)N1CCCC1` registered a melting point of 178 to 179 °C.

`Cc1cc(=O)oc2c(C)c(O)c([N+](=O)[O-])cc12` had a melting point of 230 to 232 °C.

On to `O=Cc1ccc(OCCBr)cc1`, for which the melting point lay within 49.5 to 50 °C.

In the case of `CSc1nc(-n2cnc([N+](=O)[O-])n2)c2cc(Br)ccc2n1`, the melting point is 204 °C.

`COC1CC(C)(C)C(OC(=O)c2ccccc2)C(OC(=O)c2ccccc2)C=C1C` (stereo unspecified) displayed a melting point of 78 to 80 °C.

For `Cc1cc(OCc2coc(C=Cc3ccc(SC(F)(F)F)cc3)n2)ccc1COCCn1ccnn1`, the melting point was 102 °C.

`CC(=O)N1CCN(Cc2nnc(-c3cc4cccc(N(C)S(=O)(=O)c5cccs5)c4[nH]3)s2)CC1`: the melting point fell in the range of 194 to 195 °C.

As for `COC(=O)c1cc(F)c(N2CCC(NC(C)=O)C2)nc1Nc1ccc(F)cc1F` (stereo unspecified), the melting point is 199 to 200 °C.

`Cc1ccc(S(=O)(=O)OCC2CCc3scnc3C2)cc1` (stereo unspecified) had a melting point of 87 to 88 °C.

`CCN(CC)CCCNC(=O)Cn1cnc(-c2ccccc2)c1-c1ccccc1` yielded a melting point of 81 to 83 °C.

As to `CC(=O)OCCC1CC2=C(O1)C(C)=CC(C)(O)C2C` (racemic), the melting point lay in the range of 90 to 92 °C.

`COC(=O)COc1ccccc1C1C(C(=O)OC)=C(C)NC(C)=C1C(=O)OC` had a melting point of 153 to 155 °C.

With `Cc1nc(-c2cn(Cc3ccc(F)cc3)nn2)sc1C(=O)NCc1cccnc1`, the melting point fell in the range of 212 to 213 °C.

As for `O=C(Oc1cc([N+](=O)[O-])cc([N+](=O)[O-])c1O)c1ccccc1`, the melting point is 150 to 152 °C.

As to `CC(C)(C)c1cc(=O)cc(C(C)(C)C)s1`, the melting point lay in the range of 97 to 98 °C.

Molecule `COC(=O)Cn1c(C)cc(Sc2ccccc2)c(N)c1=O` gave a melting point of 65 to 66 °C.

In turn, `O=C(O)c1ccc2c(=O)n(Cc3ccc(Cl)cc3Cl)cnc2c1` yielded a melting point of 244 to 246 °C.

`Fc1cccc(F)c1-c1nn(-c2ccccc2C(F)(F)F)c(=S)o1`: the melting point fell in the range of 128 to 130 °C.

In the case of `COc1cc(OC)c(C(=O)CCCCN2CCC3(CC2)NC(=O)NC3=O)cc1NS(=O)(=O)c1ccc(C(F)(F)F)cc1`, the melting point was determined as 226 °C.

`O[C@@H]1[C@H](O)[C@H](O)CO[C@H]1n1c(Br)nc2cc(Cl)ccc21` returned a melting point of 120 °C.

Molecule `O=C1NCCCN1C1CCN(CC(O)COc2ccccc2Cl)CC1` (stereo unspecified) showed a melting point of 150 to 153 °C.

Regarding `O=C(Nc1ccc(C(=O)N2Cc3ccccc3Cc3ccccc32)cc1)c1ccccc1C(F)(F)F`, the melting point lay in the range of 191 to 193 °C.

`COC(=O)c1ccc2c(c1)-n1cccc1CO2`: the melting point was in the range of 60 to 62 °C.

Molecule `O=C(C=Cc1cccnc1)NCC=CCN1CCN(C(c2ccccc2)c2ccccc2)CC1` returned a melting point of 116 to 119 °C.

In turn, `Cc1ccc2ccccc2c1Nc1ccccc1C(=O)O` registered a melting point of 215 to 216 °C.

`CCn1c(Nc2cc(Cl)ccc2Cl)nc(C(F)(F)F)cc1=O`: the melting point was in the range of 167 to 168 °C.

On to `CCC(=O)N(C(=O)CC)c1c(I)cc(Br)cc1S(=O)(=O)Cl`, for which the melting point was 127 to 132 °C.

On to `O=C1CCC(N2C(=O)c3cccc(NC(=O)CCCCCNC(=O)OCc4ccccc4)c3C2=O)C(=O)N1` (stereo unspecified), for which the melting point was 122 to 125 °C.

`O=C(O)COc1ccc(SCc2ccccc2OCc2ccc(C(F)(F)F)cc2)c2c1CCC2` displayed a melting point of 150 to 152 °C.

Turning to `COc1cc(OCc2cccnc2)ccc1/C=C/c1cc(/C=C/c2cccc3cc[nH]c23)n[nH]1`, the melting point was 122 to 129 °C.

`NC1Cc2ccccc2N(c2ccccc2)C1=O` (stereo unspecified) yielded a melting point of 108 to 110 °C.

On to `O=C(Nc1ccc(-c2ncc(-c3ccc(NC(=O)C4CCCCCC4)cc3)[nH]2)cc1)c1ccc(Cl)c(Cl)c1`, for which the melting point was 304 to 306 °C.

Turning to `CCCCCCCCCCCCCCCc1cccc(OC)c1`, the melting point fell in the range of 27 to 28 °C.
